Legend:
[1] = tested on: acute respiratory illness; settings: higher doses of vitamin D; patients studied for a year; cited from earlier work
Covid [2] = assay: One year investigation at Prestige Home Health, vitamin D protocol, Covid positive tests; assay type: in vivo, human; settings: target vitamin D level 60 ng/ml
Procedure: In order to test some of the concepts disclosed herein, a one year investigation was conducted to gather data where there was an objective of bringing participants to a target level of vitamin D of 60 ng/ml treated at home by staff at Prestige Home Health in Starr county, Texas and also residents of nursing homes. Data on patients and staff was provided by Yolanda Garza registered nurse (RN)/Director of Nursing (DON) on Sep. 19, 2022. For patients that followed the disclosed protocol, zero tested positive for Covid as compared to fifty-three patients who tested positive for Covid who were not on the protocol. During the same one year period, four staff members on the disclosed protocol tested positive for Covid compared to 83 staff members who tested positive who were not on the disclosed protocol. Prestige Home Health also provided portable humidifiers in homes of many of the patients treated at home. Little or no sensors were provided to determine the level of humidification. Retama Manor also tried to make indoor humidify viral safe inside their facility by including humidifiers again without sensors. Though the capacity of their humidifiers was subpar, indoor humidity in all likelihood contributed to the facility's remarkable overall success. Only one patient at Retama Manor whose Vitamin D level was in the viral safe range tested positive during the 15 month study period.

Covid [3] = assay: Retama Manor nursing home 15 month study, vitamin D protocol, Covid positive tests; assay type: in vivo, human
[4] = vitamin D exposure over 10 years; cohort of 12,388 persons; cited from earlier work

vitamin D
reduction in acute respiratory illness [1]: 40%
patients on the disclosed protocol who tested positive for Covid (Covid [2]; 53 positive patients not on protocol): zero
staff members on the disclosed protocol who tested positive for Covid (Covid [2]; 83 positive staff not on protocol): four
Covid cases per staff member, less than the other two nursing homes (Covid [3]; Retama Manor versus the other two nursing homes in Rio Grande City): 45%
patients on vitamin D protocol / in viral safe range who tested positive for Covid (Covid [3]; Retama Manor, 15 month (six quarter) study period): one
Dr. Mussett's patients who tested positive for Covid (Covid [3]; their patients at all three nursing homes in Rio Grande City, study period): two
lowering of the risk of dementia [4]: 40%
